Reference: patent US20110092558A1, “NOVEL MICROBIOCIDES” (SYNGENTA CROP PROTECTION, INC., priority 2008, published 2011)

Legend:
[1] = system: Monographella nivalis; test: Action against Monographella nivalis (snow mould) - fungal growth assay; type: cell-based; settings: 0.02% active ingredient, PDB nutrient broth, 24° C., measured photometrically after 72 hrs
Method: (§1) Action Against Monographella nivalis (Anamorph: Fusarium nivale, Microdochium nivale; Snow Mould)—Fungal Growth Assay Conidia of the fungus from cryogenic storage are directly mixed into nutrient broth (PDB potato dextrose broth). After placing a DMSO-solution of the test compounds (0.02% active ingredient) into a microtiter plate (96-well format) the nutrient broth containing the fungal spores is added. The test plates are incubated at 24° C. and the inhibition of growth is measured photometrically after 72 hrs. Compounds 1.001, 1.004, 1.052, 1.069, 1.134, 1.171, 1.182 and 1.197 show good activity in this test (at least 50% inhibition).

[2] = system: Pyrenophora teres; test: Action against Pyrenophora teres (net blotch) on barley leaf segments, preventive; type: in vivo; settings: foliar, 96 h, barley leaf segments sprayed with 0.02% active ingredient, assessed 4 days after inoculation, read-out: preventive fungicidal activity (inhibition)
Method: Action Against Pyrenophora teres (Net Blotch) on Barley Barley leaf segments are placed on agar in multiwell plates (24-well format) and sprayed with test solutions (0.02% active ingredient). After drying, the leaf disks are inoculated with a spore suspension of the fungus. After appropriate incubation the activity of a compound is assessed 4 days after inoculation as preventive fungicidal activity. Compounds 1.001, 1.004, 1.052, 1.069, 1.134, 1.171, 1.182 and 1.197 show good activity in this test (at least 50% inhibition).

[3] = system: Septoria tritici; test: Action against Septoria tritici - fungal growth assay; type: cell-based; settings: Zymoseptoria tritici; 0.02% active ingredient; PDB nutrient broth, 24° C.; determined photometrically after 72 hrs
Method: as §1, with “Septoria tritici—Fungal” for “Monographella nivalis (Anamorph: Fusarium nivale, Microdochium nivale; Snow Mould)—Fungal”, “(DMSO) solution” for “DMSO-solution”, “determined” for “measured”, “hrs. The activity of a compound is expressed as fungal growth inhibition.” for “hrs.”

[4] = system: Leptosphaeria nodorum; test: Action against Leptosphaeria nodorum (Septoria nodorum; glume blotch) on wheat leaf segments, preventive; type: in vivo; settings: Parastagonospora nodorum, foliar, 96 h; wheat leaf segments sprayed with 0.02% active ingredient; assessed 4 days after inoculation; read-out: preventive fungicidal activity (inhibition)
Method: Action Against Leptosphaeria nodorum (Septoria nodorum; Glume Blotch) on Wheat Wheat leaf segments are placed on agar in multiwell plates (24-well format) and sprayed with test solutions (0.02% active ingredient). After drying, the leaf disks are inoculated with a spore suspension of the fungus. After appropriate incubation the activity of a compound is assessed 4 days after inoculation as preventive fungicidal activity. Compounds 1.001, 1.004, 1.069, 1.134, and 1.182 show good activity in this test (at least 50% inhibition).

[5] = system: Mycosphaerella arachidis; test: Action against Mycosphaerella arachidis (early leaf spot of groundnut) - fungal growth assay; type: cell-based; settings: 0.02% active ingredient, PDB nutrient broth, 24° C., measured photometrically after 6-7 days
Method: as §1, with “Mycosphaerella arachidis (Early Leaf Spot of Groundnut Cercospora Arachidicola [Anamorph])—Fungal” for “Monographella nivalis (Anamorph: Fusarium nivale, Microdochium nivale; Snow Mould)—Fungal”, “(DMSO) solution” for “DMSO-solution”, “6-7 days. The activity of a compound is expressed as fungal growth inhibition.” for “72 hrs.”

[6] = system: Erysiphe graminis f.sp. Tritici; test: Action against Erysiphe graminis f.sp. tritici (wheat powdery mildew), wheat leaf segments, preventive; type: in vivo; settings: Blumeria graminis, foliar, 168 h; wheat leaf segments sprayed with 0.02% active ingredient; assessed 7 days after inoculation; read-out: preventive fungicidal activity (inhibition)
Method: Action Against Erysiphe graminis f.sp. Tritici (Wheat Powdery Mildew) Wheat leaf segments are placed on agar in multiwell plates (24-well format) and sprayed with test solutions (0.02% active ingredient). After drying, the leaf disks are inoculated with a spore suspension of the fungus. After appropriate incubation the activity of a compound is assessed 7 days after inoculation as preventive fungicidal activity. Compounds 1.001, 1.004, 1.052, 1.069, 1.134, and 1.182 show good activity in this test (at least 50% inhibition).

[7] = system: Puccinia recondita; test: Curative action against Puccinia recondita (brown rust) on wheat leaf segments; type: in vivo; settings: foliar, wheat leaf segments sprayed with 0.02% active ingredient one day after inoculation, assessed 8 days after inoculation, read-out: curative fungicidal activity (inhibition)
Method: Curative Action Against Puccinia recondita (Brown Rust) on Wheat Wheat leaf segments are placed on agar in multiwell plates (24-well format) and inoculated with a spore suspension of the fungus. One day after inoculation the leaf segments are sprayed with test solutions (0.02% active ingredient). After appropriate incubation the activity of a compound is assessed 8 days after inoculation as curative fungicidal activity. Compounds 1.004 and 1.052 show good activity in this test (at least 50% inhibition).

[8] = system: Botrytis cinerea; test: Action against Botrytis cinerea - fungal growth assay; type: cell-based; settings: 0.02% active ingredient, PDB nutrient broth, 24° C., measured photometrically after 3-4 days
Method: as §1, with “Botrytis cinerea—Fungal” for “Monographella nivalis (Anamorph: Fusarium nivale, Microdochium nivale; Snow Mould)—Fungal”, “(DMSO) solution” for “DMSO-solution”, “3-4 days. The activity of a compound is expressed as fungal growth inhibition.” for “72 hrs.”, “1.052,” for “1.052, 1.069,”, “1.134,” for “1.134, 1.171,”

Measured: inhibition at 0.02 % strength

CC(CCCc1c(Cl)cc(Cl)cc1Cl)NC(=O)c1cn(C)nc1C(F)F (stereo not shown) [Compound 1.069, 3-difluoromethyl-1-methyl-1H-pyrazole-4-carboxylic acid [1-methyl-4-(2,4,6-trichloro-phenyl)-butyl]-amide]
not listed: [7] | [8]
≥ 50%: all other assays above

CC(CCc1c(Cl)cc(Cl)cc1Cl)NC(=O)c1cn(C)nc1C(F)F (stereo not shown) [Compound 1.004, 3-difluoromethyl-1-methyl-1H-pyrazole-4-carboxylic acid [1-methyl-3-(2,4,6-trichloro-phenyl)-propyl]-amide]
≥ 50%: all assays above

CC(COCc1c(Cl)cccc1Cl)NC(=O)c1cn(C)nc1C(F)F (stereo not shown) [Compound 1.197, 3-difluoromethyl-1-methyl-1H-pyrazole-4-carboxylic acid [2-(2,6-dichloro-benzyloxy)-1-methyl-ethyl]-amide]
≥ 50%: [1] | [2] | [3] | [8] | [5]
